Patent US20240002846A1, “COMPOSITIONS AND METHODS FOR THE DIAGNOSIS AND TREATMENT OF ITCH” (Duke University, priority 2020, published 2024)
“Also recorded” adds a separate entry of the source.

What was measured:
[1] = tested on: human TRPV4 mutations (R746C, R746G, R746D, K754G, R757G, R774G, and W776G); assay: Ca2+ imaging in HEK cells transfected with human TRPV4 mutations; type: cell-based; conditions: except a reduction with mutation W776G
Procedure: Cell culture and transfection. HEK293 cells (ATCC® CRL-1573) were cultured on poly-D-lysine coated coverslips in 24-well plate containing DMEM media with high-Glucose (Gibco, Gaithersburg, MD) supplemented with 10% fetal bovine serum (FBS, HyClone Laboratories, Logan, UT) and 100 U/mL of penicillin/streptomycin (Gibco, Gaithersburg, MD). Cell cultures were maintained with 5% of CO2 in a humidified incubator at 37° C. HEK cells were transfected with rat or human wild type or mutant TRPV4 channels with EGFP or YFP coupled to their C-termini (1.5 μg of plasmid for excised patch clamp and Ca^2+ imaging and 200 ng for single-channel experiments). The jetPEI™ Polyplus transfection reagent (Polyplus Transfection, New York, NY) for electrophysiology or Lipofectamine™ 2000 Reagent (Invitrogen, Waltham, MA) for Ca^2+ imaging were used for transfections per manufacturer's instructions as previously described (Chen et al. Pain 2014, 155, 2662-2672; Morales-Lazaro et al. Nat. Commun. 2016, 7, 13092). […]
(§1) In vitro and ex vivo Ca^2+ imaging. […] Ratios of emissions were acquired at 0.5 Hz. ΔR/R0 was determined as the fraction of the increase of a given ratio over baseline ratio divided by baseline ratio. […]

[2] = tested on: rat TRPV4 mutations (R746C, R746G, R746D, K754G, R757G, R774G, and W776G); assay: Ca2+ imaging in HEK cells transfected with rat TRPV4 mutations; type: cell-based; conditions: except a reduction with mutation W776G
Procedure: (§2) Cell culture and transfection. HEK293 cells (ATCC® CRL-1573) were cultured on poly-D-lysine coated coverslips in 24-well plate containing DMEM media with high-Glucose (Gibco, Gaithersburg, MD) supplemented with 10% fetal bovine serum (FBS, HyClone Laboratories, Logan, UT) and 100 U/mL of penicillin/streptomycin (Gibco, Gaithersburg, MD). Cell cultures were maintained with 5% of CO2 in a humidified incubator at 37° C. HEK cells were transfected with rat or human wild type or mutant TRPV4 channels with EGFP or YFP coupled to their C-termini (1.5 μg of plasmid for excised patch clamp and Ca^2+ imaging and 200 ng for single-channel experiments). The jetPEI™ Polyplus transfection reagent (Polyplus Transfection, New York, NY) for electrophysiology or Lipofectamine™ 2000 Reagent (Invitrogen, Waltham, MA) for Ca^2+ imaging were used for transfections per manufacturer's instructions as previously described (Chen et al. Pain 2014, 155, 2662-2672; Morales-Lazaro et al. Nat. Commun. 2016, 7, 13092). To investigate whether miR-146a can directly activate TRPV1 channels or indirectly via TLRs, HEK293 cells were transfected with rTRPV1 or co-transfected rTRPV1 with rTLR7, rTLR2, or rTLR6 (Addgene, Watertown, MA) for Ca^2+ imaging assay. Control cells were transfected with GFP or YFP.
Site-directed mutagenesis of TRPV4 channels. TRPV4 sequences of multiple species were aligned using Clustal Omega program. Site-directed mutagenesis to generate point mutations in rat and human TRPV4 channels were carried out using Phusion DNA polymerase enzyme (Salazar et al. Nat. Struct. Mol. Biol. 2009, 16, 704-710; Rosenbaum et al. Neuron 2002, 33, 703-713; Hsieh et al. Methods Mol. Biol. 2013, 978, 173-186), with final sequencing to check for presence of the induced mutation. We introduced the following mutations into the rTRPV4 or hTRPV4 channel: R746C, R746G, R746D, K754G, R757G, R774G, and W776G.
as §1

hTRPV4 = target: T1, hTRPV4 (Homo sapiens, UniProt Q9HBA0); assay: Single-channel recordings of hTRPV4 in HEK293 cells; type: biochemical; conditions: +60 mV; 100 nM GSK101 or 5 μM LPC 18:1
T1 construct: expressed in transfected cells; host or cells: HEK293 (ATCC CRL-1573)
Procedure: as §2
For single-channel recordings, Borosilicate glass […]) pipettes were used. Recordings were obtained at +60 mV by acquiring several traces of 1-3 s duration. The effect of GSK1016790A or LPC 18:1 on single TRPV4 channels was studied in inside-out. Currents were filtered at 2 kHz and sampled at 5 kHz. […] Single-channel openings and closures were identified with the half-threshold crossing technique (Morales-Lazaro et al. Nat. Commun. 2016, 7, 13092). The channel open probability was calculated as the sum of the total open time divided by the sweep duration. Dwell times and amplitude histograms in the closed or open states were collected in logarithmic time histograms according to the Sine-Sigworth transformation (Sigworth et al. Biophys. J. 1987, 52, 1047-1054). Sums of three or two exponential components were fitted to histograms using a least-squares algorithm.

[3] = cited from earlier work
mice = assay: Effect of inhibitor pretreatment on LPA-, LPC- or miR-146a-induced scratching behavior; type: in vivo, mouse; conditions: i.t. 200 ng/5 μL, about 2 weeks before
Procedure: Behavioral assessment. Mice were shaved at the dorsal neck 1 d before experiments. […] After injections, mice were immediately placed back to the chamber, and the scratching behavior was recorded by a Panasonic video camera for 30 min. Hind limb scratching behavior directed toward the injected area at the nape of neck was observed. One scratch is defined as a lifting of the hind limb toward the injection site and then a replacing of the limb back to the floor, regardless of how many scratching strokes take place between those two movements. Behavioral analysis was conducted by observers blinded to genotype.
Control animals received the same volume of vehicles.
Lumbar puncture was made with a 30G-needle and drugs at 5 μL of volume were delivered. Scratching behavior assay was started approximately 2 weeks after resiniferatoxin treatment.

[4] = tested on: TRPV1+ central nerve terminals; assay: Ablation of TRPV1+ central nerve terminals in spinal cord (TRPV1 immunolabeling); type: in vivo, mouse; conditions: i.t. 200 ng/5 μL
Procedure: To examine whether TRPV1-expressing sensory neurons contribute to LPC- or miR-146α-induced itch, we ablated the central terminals of TRPV1-expressing neurons by i.t. injection of 200 ng resiniferatoxin (RTX) into the L4/L5 subarachnoid space (Mishra et al. Mol. Cell. Neurosci. 2010, 43, 157-163). Lumbar puncture was made with a 30G-needle and drugs at 5 μL of volume were delivered. Scratching behavior assay was started approximately 2 weeks after resiniferatoxin treatment.
Immunohistochemistry and morphometry analysis. Routine procedures were followed (Chen et al. Pain 2014, 155, 2662-2672). Briefly, mice were perfused transcardially with 0.01 M PBS followed by ice-cold 4% paraformaldehyde (PFA, Sigma, St. Louis, MO). Cervical spinal cord, TGs and cervical DRGs, and dorsal neck skin were dissected and post-fixed in 4% PFA overnight, cryoprotected in 20% sucrose (48 h) and sectioned on a cryostat (30 μm for spinal cord, 12 μm for TG and DRG and neck skin). […] 4-6 sections were analyzed per mouse. […] The cutoff density threshold was determined by averaging the density of three neurons per section that were judged to be minimally positive, using ImageJ software. […] Positive cells were expressed as % of total counted TG neurons. The labeling density of TRPV1 in spinal cord was measured using the integrated density algorithm of Image J.

T1 sequence (Q9HBA0 whole entry): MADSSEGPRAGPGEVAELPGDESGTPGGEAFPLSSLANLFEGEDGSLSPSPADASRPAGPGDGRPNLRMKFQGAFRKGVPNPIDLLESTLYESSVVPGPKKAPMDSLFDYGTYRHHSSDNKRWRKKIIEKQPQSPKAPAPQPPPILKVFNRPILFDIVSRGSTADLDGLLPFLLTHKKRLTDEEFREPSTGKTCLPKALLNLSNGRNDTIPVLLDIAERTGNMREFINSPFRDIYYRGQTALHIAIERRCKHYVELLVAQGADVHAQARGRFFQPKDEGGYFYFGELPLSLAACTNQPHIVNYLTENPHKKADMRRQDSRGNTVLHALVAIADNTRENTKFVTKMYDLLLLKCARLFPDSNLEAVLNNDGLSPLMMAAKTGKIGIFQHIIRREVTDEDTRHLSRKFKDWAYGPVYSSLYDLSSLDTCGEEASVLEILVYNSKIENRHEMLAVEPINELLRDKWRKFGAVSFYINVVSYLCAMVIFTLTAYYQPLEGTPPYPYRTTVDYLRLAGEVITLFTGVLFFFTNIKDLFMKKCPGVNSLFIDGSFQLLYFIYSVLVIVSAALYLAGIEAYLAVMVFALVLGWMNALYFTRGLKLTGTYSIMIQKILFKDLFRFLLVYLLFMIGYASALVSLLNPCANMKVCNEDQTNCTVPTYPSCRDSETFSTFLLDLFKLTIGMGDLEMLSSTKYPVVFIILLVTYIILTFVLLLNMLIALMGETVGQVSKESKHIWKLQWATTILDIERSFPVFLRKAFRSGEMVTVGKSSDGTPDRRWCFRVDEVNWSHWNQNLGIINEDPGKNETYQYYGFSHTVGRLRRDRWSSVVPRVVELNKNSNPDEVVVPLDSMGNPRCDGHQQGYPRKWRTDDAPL

In the case of `CC(C)C[C@H](NC(=O)c1cc2ccccc2s1)C(=O)N1CCN(C(=O)[C@H](CO)NS(=O)(=O)c2ccc(Cl)cc2Cl)CC1` [GSK101], the “10 nM GSK101-induced Ca2+ signal in TRPV4 mutants vs hTRPV4” value [1] was “not significantly disrupted”, the “10 nM GSK101-induced Ca2+ signal in TRPV4 mutants vs rTRPV4” value [2] was “remained largely active; also recorded: not significantly disrupted” and the “open level (single-channel) amplitude” value (hTRPV4) was 6.45±0.55 pA. The “open probability (Po)” value (hTRPV4) was 0.85±0.08, the “single channel conductance (gi)” value (hTRPV4) was 107 pS and the lethality in-vivo [3] was “lethal”.

With `C=C(C)[C@]12C[C@@H](C)[C@@]34O[C@](Cc5ccccc5)(O[C@@H]1[C@@H]3C=C(COC(=O)Cc1ccc(O)c(OC)c1)C[C@]1(O)C(=O)C(C)=C[C@@H]41)O2` [resiniferatoxin] the “effect on LPC-induced itch after ablation of TRPV1-expressing terminals” value (mice) was “significantly reduced”, the “effect on miR-146a-induced itch after ablation of TRPV1-expressing terminals” value (mice) was “significant reduction; also recorded: significantly reduced” and the “TRPV1+ central nerve terminals in superficial layers of the spinal cord” value [4] was “Selective ablation; also recorded: Elimination”.
